Columns and labels:
Assay type in all cases: cell-based
K562 = experiment: MTT assay, K562 cells; conditions: Homo sapiens, 24 h
Nalm-6 = experiment: MTT assay, Nalm-6 cells; conditions: Homo sapiens, 24 h
Molt-4 = experiment: MTT assay, Molt-4 cells
Description: (§1) K562, Jurkat, Molt-4, and Nalm-6 cell lines were cultured in RPMI-1640 medium (ECM2001, Euroclone), Reh cell line was cultured in DMEM medium (LM-D1111-Biosera) Hek293T cell line was cultured in IMDM medium (AL070A - HiMedia) supplemented with 10% heat-inactivated fetal bovine serum (F7524-Merck & Co., USA,) penicillin and streptomycin (P4333-Sigma Aldrich). K562, Jurkat and Molt-4 cell lines were seeded as 4x10^5/ml, Reh and Nalm-6 cell lines were seeded 5x10^5/ml, Hek293T cell line was seed as 2x10^5/ml. All cells were incubated at 5% CO2 and 37 °C. All cell lines were kindly provided by Dr. M. Sayitoglu and Dr. Ö. Hatirnaz-Ng from Acibadem University.
(§2) MTT assay is a 3-day test. On the first day, cell count was performed in Bio Rad TC-20 device with the help of trypan blue, each cell line was prepared by diluting to the specified concentrations and seeded in a 96-well plate as 100μL to each well and incubated for 1 day.
(§3) Each compound was solved in DMSO, their stock solutions (33.3, 10, 5, 1 mM, and 300 μM) were prepared by diluting with the same solvent and they were stored under −20°C when they were not used.
(§4) On the second day, stock solutions were subsequently diluted to various concentrations (0.3–200 μM) with related medium prior to experiments. Specified concentrations of the compounds were seeded in a 96-well plate as 100μL to each well and incubated for 24 h.
(§5) After incubation (on the third day), to precipitate leukemia cells, the cell plate was centrifuged at 1500 rpm for 5 min. Then, 100 μL of supernatant was removed from each well carefully and 10 μl of MTT solution (5 mg/mL) was added to each well and incubated at 37 °C for 4 h. The 50 μl of supernatant was discarded from each well and 100 μl of DMSO was added to dissolve the formazan. Plates were shaken for 45 min to dissolve the dye. Then the optical density of each well was measured by using Thermo VarioSkan Flush Multimode Reader Quantum ST5-1100 at 570 nm wavelength.
(§6) Subsequently, viability rate of the cells at each concentration, as percentage, was determined by following formula (1):
(§7) Viability rate (%)=100-[(OD(control)-OD(sample))/OD(control)×100].OD=Optical Density
(§8) The IC50 values were calculated by using GraphPad Prism. All the data presented as the mean of 6 replicates. Results were analyzed and illustrated with Graph Pad Prism (version 5; GraphPad Software, San Diego, CA, USA). Statistical analysis was performed using dose-response inhibition, log(inhibitor) vs response-variable slope, least squares (ordinary) fit.
(§9) To evaluate in-vitro anti-cancer activity of the newly synthesized compounds, they were tested by using the MTT assay in the BCR-ABL positive leukemic cell line (K562), BCR-ABL negative leukemic cell lines (Nalm-6, Molt-4, Reh and Jurkat), and non-leukemic human embryonic kidney tissue (Hek293T) cell line. […] The viability rate of each concentration was calculated by the formula stated in material and methods, the viability rate results for each cell were presented in Table S2 and Figure S44.

Reh = experiment: MTT assay, Reh cells; conditions: Homo sapiens, 24 h, read-out: Viability rate
Description: as §1, §2, §3, §4, §5, §6, §7, §8, §9

Jurkat = experiment: MTT assay, Jurkat cells; conditions: Homo sapiens, 24 h, read-out: Viability rate
Description: as §1, §2, §3, §4, §5, §6, §7, §8, §9

[1] = MTT assay, Hek293T non-leukemic control cells; conditions: human, read-out: Viability rate
Description: as §1, §2, §3, §4, §5, §6, §7, §8, §9

[2] = tested on: K562, Nalm-6, Molt-4, Reh, Jurkat, Hek293T cell lines; experiment: MTT assay, overall judgement over all cell lines; conditions: overall judgement in words; for 6 and 10: on all cell lines, except Reh
Description: as §9

COc1ccc(CN2CCN(Cc3ccc(C(=O)Nc4ccc(C)c(Nc5cc(C)ccn5)c4)cc3)CC2)c(OC)c1OC [Compound 10, N-(4-Methyl-3-((4-methylpyridin-2-yl)amino)phenyl)-4-((4-(2,3,4-trimethoxybenzyl)piperazin-1-yl)methyl)benzamide]
viability at 0.3 µM (K562; K562, 0.3 μM, MTT, read-out: Viability rate): 104.1 ± 0.07%
viability at 0.5 µM (K562; K562, 0.5 μM, MTT, read-out: Viability rate): 103.4 ± 0.06%
viability at 1 µM (K562; K562, 1 μM, MTT, read-out: Viability rate): 98.9 ± 0.05%
viability at 3 µM (K562; K562, 3 μM, MTT, read-out: Viability rate): 98.7 ± 0.04%
viability at 5 µM (K562; K562, 5 μM, MTT, read-out: Viability rate): 98.6 ± 0.06%
viability at 10 µM (K562; K562, 10 μM, MTT, read-out: Viability rate): 98.9 ± 0.09%
viability at 15 µM (K562; K562, 15 μM, MTT, read-out: Viability rate): 98.6 ± 0.08%
viability at 20 µM (K562; K562, 20 μM, MTT, read-out: Viability rate): 79.2 ± 0.06%
viability at 30 µM (K562; K562, 30 μM, MTT, read-out: Viability rate): 78.9 ± 0.1%
viability at 50 µM (K562; K562, 50 μM, MTT, read-out: Viability rate): 56.1 ± 0.03%
viability at 70 µM (K562; K562, 70 μM, MTT, read-out: Viability rate): 38.5 ± 0.02%
viability at 100 µM (K562; K562, 100 μM, MTT, read-out: Viability rate): 38.7 ± 0.01%
viability at 150 µM (K562; K562, 150 μM, MTT, read-out: Viability rate): 38.9 ± 0.01%
viability at 200 µM (K562; K562, 200 μM, MTT, read-out: Viability rate): 38.7%
IC50 (K562; K562, MTT, range 0.3–200 μM, six replicates): 35 µM
viability at 0.3 µM (Nalm-6; Nalm-6, 0.3 μM, MTT, read-out: Viability rate): 92.7 ± 0.08%
viability at 0.5 µM (Nalm-6; Nalm-6, 0.5 μM, MTT, read-out: Viability rate): 88.6 ± 0.06%
viability at 1 µM (Nalm-6; Nalm-6, 1 μM, MTT, read-out: Viability rate): 87.3 ± 0.07%
viability at 3 µM (Nalm-6; Nalm-6, 3 μM, MTT, read-out: Viability rate): 86.5 ± 0.02%
viability at 5 µM (Nalm-6; Nalm-6, 5 μM, MTT, read-out: Viability rate): 85.5 ± 0.06%
viability at 10 µM (Nalm-6; Nalm-6, 10 μM, MTT, read-out: Viability rate): 84.8 ± 0.08%
viability at 15 µM (Nalm-6; Nalm-6, 15 μM, MTT, read-out: Viability rate): 82.2 ± 0.08%
viability at 20 µM (Nalm-6; Nalm-6, 20 μM, MTT, read-out: Viability rate): 71.9 ± 0.07%
viability at 30 µM (Nalm-6; Nalm-6, 30 μM, MTT, read-out: Viability rate): 54.2 ± 0.07%
viability at 50 µM (Nalm-6; Nalm-6, 50 μM, MTT, read-out: Viability rate): 29.8 ± 0.01%
viability at 70 µM (Nalm-6; Nalm-6, 70 μM, MTT, read-out: Viability rate): 28.8 ± 0.01%
viability at 100 µM (Nalm-6; Nalm-6, 100 μM, MTT, read-out: Viability rate): 28.7 ± 0.01%
viability at 150 µM (Nalm-6; Nalm-6, 150 μM, MTT, read-out: Viability rate): 28.5 ± 0.01%
viability at 200 µM (Nalm-6; Nalm-6, 200 μM, MTT, read-out: Viability rate): 28.7%
IC50 (Nalm-6; Nalm-6, MTT, range 0.3–200 μM, six replicates): 28.7 µM
viability at 0.3 µM (Molt-4; Homo sapiens, MOLT-4, 24 h, Molt-4, 0.3 μM, read-out: Viability rate): 87.9 ± 0.03%
viability at 0.5 µM (Molt-4; Homo sapiens, MOLT-4, 24 h, Molt-4, 0.5 μM, read-out: Viability rate): 86.8 ± 0.02%
viability at 1 µM (Molt-4; Homo sapiens, MOLT-4, 24 h, Molt-4, 1 μM, read-out: Viability rate): 87.7 ± 0.01%
viability at 3 µM (Molt-4; Homo sapiens, MOLT-4, 24 h, Molt-4, 3 μM, read-out: Viability rate): 86.5 ± 0.02%
viability at 5 µM (Molt-4; Homo sapiens, MOLT-4, 24 h, Molt-4, 5 μM, read-out: Viability rate): 86.2 ± 0.08%
viability at 10 µM (Molt-4; Homo sapiens, MOLT-4, 24 h, Molt-4, 10 μM, read-out: Viability rate): 89.1 ± 0.03%
viability at 15 µM (Molt-4; Homo sapiens, MOLT-4, 24 h, Molt-4, 15 μM, read-out: Viability rate): 88.1 ± 0.04%
viability at 20 µM (Molt-4; Homo sapiens, MOLT-4, 24 h, Molt-4, 20 μM, read-out: Viability rate): 77 ± 0.04%
viability at 30 µM (Molt-4; Homo sapiens, MOLT-4, 24 h, Molt-4, 30 μM, read-out: Viability rate): 65.3 ± 0.03%
viability at 50 µM (Molt-4; Homo sapiens, MOLT-4, 24 h, Molt-4, 50 μM, read-out: Viability rate): 52.1 ± 0.03%
viability at 70 µM (Molt-4; Homo sapiens, MOLT-4, 24 h, Molt-4, 70 μM, read-out: Viability rate): 42.8 ± 0.01%
viability at 100 µM (Molt-4; Homo sapiens, MOLT-4, 24 h, Molt-4, 100 μM, read-out: Viability rate): 40.4 ± 0.01%
viability at 150 µM (Molt-4; Homo sapiens, MOLT-4, 24 h, Molt-4, 150 μM, read-out: Viability rate): 40 ± 0.01%
viability at 200 µM (Molt-4; Homo sapiens, MOLT-4, 24 h, Molt-4, 200 μM, read-out: Viability rate): 40.7 ± 0.01%
Viability rate (Molt-4; Molt-4, 200 μM, 24 h, 200 µM): < 50%
viability at 0.3 µM (Reh; 0.3 μM): 93.4 ± 0.02%
viability at 0.5 µM (Reh; 0.5 μM): 92.4 ± 0.02%
viability at 1 µM (Reh; 1 μM): 92.4 ± 0.01%
viability at 3 µM (Reh; 3 μM): 92.6 ± 0.02%
viability at 5 µM (Reh; 5 μM): 92.8 ± 0.02%
viability at 10 µM (Reh; 10 μM): 92.3 ± 0.03%
viability at 15 µM (Reh; 15 μM): 92.6 ± 0.02%
viability at 20 µM (Reh; 20 μM): 91.8 ± 0.01%
viability at 30 µM (Reh; 30 μM): 65.6 ± 0.02%
viability at 50 µM (Reh; 50 μM): 59.5 ± 0.03%
viability at 70 µM (Reh; 70 μM): 59.1 ± 0.02%
viability at 100 µM (Reh; 100 μM): 59.6 ± 0.03%
viability at 150 µM (Reh; 150 μM): 57.4 ± 0.03%
viability at 200 µM (Reh; 200 μM): 55.2 ± 0.03%
viability at 0.3 µM (Jurkat; 0.3 μM): 73 ± 0.1%
viability at 0.5 µM (Jurkat; 0.5 μM): 71.7 ± 0.1%
viability at 1 µM (Jurkat; 1 μM): 70.9 ± 0.08%
viability at 3 µM (Jurkat; 3 μM): 69.4 ± 0.03%
viability at 5 µM (Jurkat; 5 μM): 68.7 ± 0.05%
viability at 10 µM (Jurkat; 10 μM): 68.1 ± 0.09%
viability at 15 µM (Jurkat; 15 μM): 67.5 ± 0.07%
viability at 20 µM (Jurkat; 20 μM): 64.1 ± 0.15%
viability at 30 µM (Jurkat; 30 μM): 61.7 ± 0.07%
viability at 50 µM (Jurkat; 50 μM): 61.4 ± 0.05%
viability at 70 µM (Jurkat; 70 μM): 50.5 ± 0.02%
viability at 100 µM (Jurkat; 100 μM): 38.1 ± 0.2%
viability at 150 µM (Jurkat; 150 μM): 35.9 ± 0.12%
viability at 200 µM (Jurkat; 200 μM): 32.5 ± 0.03%
viability at 24 h, 0.3 µM ([1]; Hek293T cells (non-leukemic control cell line), 0.3 μM): 82.8 ± 0.02%
viability at 24 h, 0.5 µM ([1]; Hek293T cells (non-leukemic control cell line), 0.5 μM): 78.2 ± 0.01%
viability at 24 h, 3 µM ([1]; Hek293T cells (non-leukemic control cell line), 3 μM): 80.4 ± 0.02%
viability at 24 h, 5 µM ([1]; Hek293T cells (non-leukemic control cell line), 5 μM): 79.1 ± 0.01%
viability at 24 h, 10 µM ([1]; Hek293T cells (non-leukemic control cell line), 10 μM): 80.2 ± 0.02%
viability at 24 h, 15 µM ([1]; Hek293T cells (non-leukemic control cell line), 15 μM): 81.4 ± 0.01%
viability at 24 h, 20 µM ([1]; Hek293T cells (non-leukemic control cell line), 20 μM): 80.8 ± 0.01%
viability at 24 h, 30 µM ([1]; Hek293T cells (non-leukemic control cell line), 30 μM): 82.2 ± 0.03%
viability at 24 h, 50 µM ([1]; Hek293T cells (non-leukemic control cell line), 50 μM): 79.2 ± 0.03%
viability at 24 h, 70 µM ([1]; Hek293T cells (non-leukemic control cell line), 70 μM): 80.2 ± 0.02%
viability at 24 h, 100 µM ([1]; Hek293T cells (non-leukemic control cell line), 100 μM): 80.7 ± 0.01%
viability at 24 h, 150 µM ([1]; Hek293T cells (non-leukemic control cell line), 150 μM): 80 ± 0.01%
viability at 24 h, 200 µM ([1]; Hek293T cells (non-leukemic control cell line), 200 μM): 81 ± 0.02%
viability at 24 h, 1 µM ([1]; Hek293T cells, 1 μM): 78.1 ± 0.01%
anticancer activity according to MTT assay results [2]: high anticancer activity

— article PMC10734772 (Turkish Journal of Chemistry, 2021)
